Test results from US7456154B2 (priority 2001, dated 2008).

Experiments:
AChE-R mRNA = assay: In situ hybridization of AChE-R mRNA in rat spinal cord neurons; type: in vivo; conditions: 500 μg/kg i.v. daily, 7 days
Method: FIG. 17 Effect of rEN101 on AChE-R mRNA in rat spinal cord neurons. The presence of AChE-R mRNA-positive cells was determined in spinal cord section of rats that had been treated for 7 days with rEN101 (500 μg/kg. i.v., daily).
In situ hybridization: Tissues were fixed in 4% paraformaldehyde and cut into 7 μm paraffin embedded sections. Spinal cord sections were deparaffinized, rehydrated using serial ethanol dilutions and permeabilized with proteinase K (10 μg/ml at room temp.). Slides were exposed to 5′ biotinylated, fully 2′-oxymethylated AChE-R or AChE-S-specific 50-mer cRNA probes complementary to human ACHE pseudo-intron 4 or exon 6, respectively [Grisaru et al. (2001) id ibid.]. Hybridization was performed overnight at 52° C. in hybridization mixture containing 10 μg/ml probe, 50 μg/ml yeast tRNA, 50 μg/ml heparin and 50% formamide in 375 mM Na chloride, 37.5 mM Na citrate, pH 4.5. For monkey sections, the probe was constructed according to the human AChE-R sequence; for rat sections, according to the mouse sequence. Slides were washed to remove non-hybridized probe, blocked with 1% skim milk containing 0.01% Tween-20 and 2 mM levamisole, an alkaline phosphatase inhibitor used to suppress non-specific staining and incubate with streptavidin-alkaline phosphatase (Amersham Pharmacia). […] Microscope images were analyzed with Image Pro Plus 4.0 (Media Cybernetics) software.

EAMG rats [1] = assay: Electromyography: CMAP ratio under repetitive 3 Hz nerve stimulation in EAMG rats; type: in vivo, rat; conditions: for CMAP ratio (5th vs. 1st amplitude): average ± SEM
EAMG rats [2] = assay: Repeated daily treatment of EAMG rats (5 days and 1 month): survival, body weight, status; type: in vivo, rat
Text: As shown in Example 5, unlike anti-cholinesterases, rEN101 afforded long-term maintenance of stable CMAP. This further enabled the inventors to test whether the cholinergic imbalance contributes to the physiological deterioration that is characteristic of EAMG. Rats were first treated with rEN101 once a day for 5 days, CMAPs being determined prior to each treatment. Both the efficacy of rEN101 in retrieving normal CMAP and its capacity to reduce the inter-animal variability in CMAP values reached similar levels to those of pyridostigmine (FIGS. 11A and 11B). However, the onset of response to pyridostigmine was more rapid (Table 1), while that observed with rEN101 was longer-lasting. Daily oral or i.v administration of rEN101 stabilized CMAPs over the entire course of treatment (FIG. 11B). In contrast, the effect of pyridostigmine wore off within several hours, causing pronounced fluctuations in muscle status (Table 1 and FIG. 11). Among the animals treated daily with pyridostigmine, 5 out of 6 died within the 5 day experimental course. In contrast, 6 out of 8 animals treated once-a-day with rEN101 via o.g. survived the full 5 day period. This conspicuous difference might reflect the susceptibility of EAMG rats to repeated anesthesia and CMAP measurements. In order to avoid these additional stresses and evaluate the effect of the antisense treatment on EAMG pathophysiology, the inventors subjected groups of moderately sick animals to 1 month of daily oral treatment with minimal interference. […] One way repeated measures ANOVA yielded P<0.05 for all other measures (AS vs. other treatments at 4 weeks). The effect of rEN101 on clinical symptoms was also corroborated by body weight changes. Rats treated with saline and Mestinon treated groups lost 13.5 and 11 g/animal, respectively, whereas animals treated with rEN101 gained, on average, 13 g during the treatment period. Thus, daily rEN101 administration promoted long-term change in the course of EAMG in rats with moderate to severe symptoms, under the same conditions in which untreated or pyridostigmine-treated animals deteriorated.

AChE-S mRNA = assay: In situ hybridization of AChE-S mRNA in rat muscle; type: in vivo; conditions: 24 h after single i.v. injection
Method: In situ hybridization: Tissues were fixed in 4% paraformaldehyde and cut into 7 μm paraffin embedded sections. Spinal cord sections were deparaffinized, rehydrated using serial ethanol dilutions and permeabilized with proteinase K (10 μg/ml at room temp.). Slides were exposed to 5′ biotinylated, fully 2′-oxymethylated AChE-R or AChE-S-specific 50-mer cRNA probes complementary to human ACHE pseudo-intron 4 or exon 6, respectively [Grisaru et al. (2001) id ibid.]. Hybridization was performed overnight at 52° C. in hybridization mixture containing 10 μg/ml probe, 50 μg/ml yeast tRNA, 50 μg/ml heparin and 50% formamide in 375 mM Na chloride, 37.5 mM Na citrate, pH 4.5. For monkey sections, the probe was constructed according to the human AChE-R sequence; for rat sections, according to the mouse sequence. Slides were washed to remove non-hybridized probe, blocked with 1% skim milk containing 0.01% Tween-20 and 2 mM levamisole, an alkaline phosphatase inhibitor used to suppress non-specific staining and incubate with streptavidin-alkaline phosphatase (Amersham Pharmacia). Fast Red™ substrate (Roche Diagnostics) was used for detection. DAPI staining (Sigma Chemical Co., St. Louis, Mo., USA) served to visualize nuclei. Microscope images were analyzed with Image Pro Plus 4.0 (Media Cybernetics) software. […]

AChE-R = assay: Immunohistochemical staining of AChE-R in rat muscle; type: in vivo; conditions: healthy and EAMG rats, 24 h after single i.v. injection of 250 μg/Kg
Method: Immunocytochemistry: Muscle sections were deparaffinized with xylene and were re-hydrated in graded ethanol solutions (100%, 90%, 70%) and PBS. Heat-induced antigen retrieval was performed by microwave treatment (850 W for rapid boil following 10 min in reduced intensity) in 500 ml of 0.01M citrate buffer pH 6.0. Slides were cooled to room temperature and rinsed in double distilled water. Non-specific binding was blocked by 4% nominal donkey serum in PBS with 0.3% Triton X-100 and 0.05% Tween 20 (1 hr at room temperature). Biotinylated primary antibody was diluted (1:100 and 1:30 for rabbit anti-AChE-R [Sternfeld et al. (2000) id ibid] and goat anti-nAChR, respectively) in the same buffer and slides were incubated 1 hr at room temperature following overnight incubation at 4° C. Sections were rinsed and incubated with alkaline phosphatase-conjugated secondary antibody, diluted in the same blocking buffer 1 hr at room temperature and then overnight at 4° C. Detection was with the alkaline phosphatase substrate Fast Red (Roche Diagnostics, Mannheim, Germany). Slides were simultaneously transferred to a stop solution (25 mM EDTA, 0.05% Triton X-100, 1 mM levamisole in PBS, pH 7.2), rinsed in PBS and cover-slipped with Immunomount (Shandon). […]

[3] = Stability of hEN101 in human plasma and blood; type: in vitro ADME
Method: Exposure at room temperature to Li-heparin-treated blood caused a decay of hEN101 with a half-life in the order of 30 min.

## 5′-CTGCGATATTTTCTTGTACC-3′ (chemistry not given here) [rEN101]
AChE-R mRNA
  AChE-R mRNA in rat spinal cord neurons: does not suppress AChE-R mRNA
EAMG rats [1]; 50 μg/Kg i.v.
  Duration of effective CMAP correction: 24 h
EAMG rats [1]; 500 μg/Kg i.v.
  Duration of CMAP rectification: 72 h
  Extent of CMAP rectification: up to 125 % of baseline
EAMG rats [1]; EAMG rats, FIG. 9B inset
  Average CMAP ratio in treated animals: 107.4±3.8 % of first depolarization
EAMG rats [1]; doses between 10-500 μg/Kg
  Duration of restoration of CMAP decline: up to 72 h
EAMG rats [1]; i.v., doses 10-500 μg/Kg
  Time to retrieve stable CMAP ratios: ≤ 1 h
EAMG rats [1]; i.v., up to 5 h following injection (1 and 5 h)
  IC50 of saturable CMAP response (dose response curve): < 0.01 mg/kg
EAMG rats [1]; intravenous, EAMG rats, 0 h, 50 μg/Kg
  CMAP ratio (5th vs. 1st amplitude): 0.87 ± 0.01
EAMG rats [1]; intravenous, EAMG rats, 1 h, 50 μg/Kg
  CMAP ratio (5th vs. 1st amplitude): 1.00 ± 0.01
EAMG rats [1]; intravenous, EAMG rats, 5 h, 50 μg/Kg
  CMAP ratio (5th vs. 1st amplitude): 0.98 ± 0.02
EAMG rats [1]; intravenous, EAMG rats, 24 h, 50 μg/Kg
  CMAP ratio (5th vs. 1st amplitude): 1.00 ± 0.00
EAMG rats [1]; oral gavage, 50 μg/Kg oligonucleotide, 1000 μg/kg pyridostigmine, CMAP 1, 5, 24 h
  Effect of oral administration on CMAP decline: as effective as 25 μg/Kg administered i.v.
EAMG rats [1]; oral, EAMG rats, 0 h, 50 μg/Kg oligonucleotide, 1000 μg/Kg pyridostigmine
  CMAP ratio (5th vs. 1st amplitude): 0.84 ± 0.03
EAMG rats [1]; oral, EAMG rats, 1 h, 50 μg/Kg oligonucleotide, 1000 μg/Kg pyridostigmine
  CMAP ratio (5th vs. 1st amplitude): 0.97 ± 0.02
EAMG rats [1]; oral, EAMG rats, 5 h, 50 μg/Kg oligonucleotide, 1000 μg/Kg pyridostigmine
  CMAP ratio (5th vs. 1st amplitude): 0.97 ± 0.03
EAMG rats [1]; oral, EAMG rats, 24 h, 50 μg/Kg oligonucleotide, 1000 μg/Kg pyridostigmine
  CMAP ratio (5th vs. 1st amplitude): 1.01 ± 0.01
EAMG rats [1]; single oral dose, rEN101 50 μg/kg, pyridostigmine 1000 μg/kg
  CMAP ratio 24 h following single oral administration: no decline was detected
EAMG rats [2]; EAMG rats treated once-a-day via o.g.
  Animals that survived the full 5 day period: 6 out of 8
EAMG rats [2]; EAMG rats, 1 month daily oral doses (50 μg/Kg)
  Survival, clinical status and treadmill performance vs pyridostigmine- and saline-treated animals: significant improvement in survival, clinical status and treadmill performance
EAMG rats [2]; EAMG rats, 1 month daily oral treatment
  Body weight gained during the treatment period, average: 13 g
AChE-S mRNA
  AChE-S mRNA labeling in muscle: only nominally affected
AChE-R
  AChE-R immunohistochemical staining in muscle: significantly reduced

## 5′-CTGCCACGTTCTCCTGCACC-3′ [hEN101]
[3]; 2 h in human plasma with EDTA at room temperature
  Stability, remaining concentration: > 90 % of original concentration
[3]; Li-heparin-treated blood at room temperature
  Half-life of decay: ~30 min
[3]; after 1 month at −20° C.
  Stability, remaining concentration: > 90 % of original concentration
[3]; following three freeze/thawing cycles
  Stability, remaining concentration: > 90 % of original concentration
